Values of other authors, collected in CN111214447A, “一种甲磺酸沙芬酰胺固体组合物及其制备方法” (Beijing Wanquan Dezhong Medical Biological Technology Co Ltd, priority 2018, dated 2020).
Converted amounts (≈) assume the structure as drawn.

Conditions: aqueous medium, pH=7

C[C@H](NCc1ccc(OCc2cccc(F)c2)cc1)C(N)=O [沙芬酰胺, 甲磺酸]
solubility: 10 µg/mL (≈ 33.1 µM)
